Measured values reported in patent US8318794B2, “Method of use of porphyrins in preparing a medicament for sonodynamic therapy and a method of sonodynamic therapy using porphyrins” (Science Group Pty. Ltd., priority 2008, dated 2012).

Key:
[1] = test system: S-180 sarcoma; experiment: Animal Test A: SDT with dihydroporphin e4 in KM mouse S-180 sarcoma model; assay type: in vivo; conditions: for Average Tumor Weights: 12 days after treatment
Experimental: The sound-sensitive agent, dihydroporphin e4, is prepared according to Chinese Patent No. 99119878.6. The agent is dissolved in water for injection in darkness to give a final concentration of 4 mg/mL. The resultant solution is stored at 4° C. in darkness.
The animal tumor model used in this study was the KM mouse S-180 sarcoma, which is one of the tumor models appointed by the China Food and Drug Administration (CFDA) for new anticancer drug testing. Mouse S-180 sarcoma cell line was commercially available from the Cancer Hospital affiliated to Sun Yat-sen University. The inbred strain of KM mice (female, about 18-20 g body weight) was bred and tested in a laboratory consistent with national standards for new drug tests (the Animal Experimental Centre of Guangzhou Chinese Traditional Medical University). The mouse S-180 sarcoma cell line was injected into and raised in the abdominal cavity of the KM mouse and regenerated 3 times by passing malignant ascites from one mouse to another to confirm their growth is stable.
The ultrasound having a frequency of 1.0 MHz and an adjustable power density in the range of 0.1-2.2 W/cm^2 is applied. The apparatus can emit parallel wave, continuous wave or discontinuous wave.
The ascites with S-180 cell suspension was drawn out from the abdomen of the third passage mouse, and germ-free physiological saline solution was added. The final concentration of the cell suspension was 1×10^7 cells/mL. 0.1 mL of the cell suspension was injected subcutaneously in the right axilla of the mouse to grow a solid tumor.
Three days later, a small mass with the average diameter of about 0.4 cm was seen and palpated on every implanted mouse axilla. These tumor-bearing mice are divided randomly into the following groups with 5 mice in each group: • 1) a blank control group (C); • 2) a ultrasound group (U), which are simply treated with ultrasound (having a frequency of 1.0 MHz and a power density of 1.6 W/cm^2) without injection of the sound-sensitive agent; • 3) a sound-sensitive agent group (E), which are simply injected with the sound-sensitive agent without treatment of ultrasound; • 4) a 0.4 group (EU1), which are injected with the sound-sensitive agent and subsequently treated with ultrasound having a frequency of 1.0 MHz and a power density of 0.4 W/cm^2; • 5) a 0.8 group (EU2), which are treated according to EU1 except using ultrasound having a power density of 0.8 W/cm^2; and • 6) a 1.6 group (EU3), which are treated according to EU1 except using ultrasound having a power density of 1.6 W/cm^2.
To prepare the mice for the experiment, the fur on the tumor-bearing area of the mice was removed with depilatory cream. For the E, EU1, EU2 and EU3 groups, the sound-sensitive agent was injected into each mouse abdominal cavity in a dose of 40 mg/kg in a dark room. The mice are kept in darkness.
Six hours after the injection, each mouse of the EU1, EU2 and EU3 groups and the U group is partially immerged in water with only their head remaining above the water surface. An ultrasound probe was then placed into the water to irradiate the tumor area at the above parameters for 3 minutes. The mice of each group are fed in a conventional way.
After treatment with SDT, primary tumor size were estimated by measuring perpendicular minor dimension (W) and major dimension (L) using sliding calipers every one or two days. Approximate tumor volume was calculated by the formula: W^2L×½.
12 days later, the mice are sacrificed by breaking the cervical vertebrae. The tumor tissues are separated and weighed on an electronic balance to calculate an average weight. Various groups are compared in terms of their respective average tumor weight at the 12th day.
In comparing the tumor weights of various groups, statistic analysis is performed using the Student's t test.

[2] = test system: right breast carcinoma, tumor metastasis in liver; experiment: Clinical case: SDT with lysine form of tin chlorophyllin; assay type: in vivo, human; conditions: patient
Experimental: A patient with right breast carcinoma. […] 9, 2007 (see FIG. 5). The lysine form of tin chlorophyllin as indicated in the above animal test B was dissolved in 0.1 mol/L phosphate buffer (pH 7.4) and given to the patient through lingual absorption every day for 2 days. Total dose of the lysine form of tin chlorophyllin was 60 mg. After 24 h, the red light light-emitting diode (LED) was irradiated to the body surface followed by local ultrasound irradiating of the tumour area at the intensities of 2.0 W/cm^2 for 20 minutes in a water bathtub every day for 3 days. One week later, the treatment was repeated. After 3 cycles of SDT treatment with the lysine form of tin chlorophyllin, CT-PET scan on Jan.

[3] = test system: S-180 sarcoma; experiment: Animal Test B: SDT with lysine form of tin chlorophyllin in KM mouse S-180 sarcoma model; assay type: in vivo
Experimental: The sound-sensitive agent was the amino acid form of tin chlorophyllin, wherein M is Sn^4+, R1 is a residue of lysine, and R2 is a residue of lysine; the agent was obtained according to the previous process. The agent was dissolved in 0.1 mol/L phosphate buffer (pH 7.2-7.4) in darkness to give a final concentration of 2 mg/mL. The resultant solution was stored at 4° C. in a dark and quiet place.
The same as used in the above Animal Test A.
The same as established in the above Animal Test A.
After four days, touchable tumors with the average diameter of about 0.6 cm are developed subcutaneously at the right axillae of the mice. These tumor-bearing mice are divided randomly into the following groups: • 1) a blank control group (C); • 2) a ultrasound group (U), which are simply treated with ultrasound (having a frequency of 1.0 MHz and a power density of 1.2 W/cm^2) without injection of the sound-sensitive agent; • 3) a sound-sensitive agent group (S), which are simply injected with the sound-sensitive agent without treatment of ultrasound; • 4) a 0.3 group (SU1), which are injected with the sound-sensitive agent and subsequently treated with ultrasound having a frequency of 1.0 MHz and a power density of 0.3 W/cm^2; • 5) a 0.6 group (SU2), which are treated according to SU1 except using ultrasound having a power density of 0.6 W/cm^2; and • 6) a 1.2 group (SU3), which are treated according to SU1 except using ultrasound having a power density of 1.2 W/cm^2.
A depilatory cream is applied to remove fur on the areas to be irradiated. For the S, SU1, SU2 and SU3 groups, the sound-sensitive agent is injected intraperitoneally to each mouse at a dose of 20 mg/kg in a dark room. The mice are then fed in darkness.
6 h after injection, each mouse of the SU1, SU2 and SU3 groups and the U group is partially immerged in water with only their head remaining above the water surface. An ultrasond probe was then placed into the water to irradiate the tumor area at the above parameters for 180 seconds. The mice of each group are fed in a conventional way.
The same as in the above Animal Test A.
15 days later, the mice are sacrificed by breaking the cervical vertebrae. The tumor tissues are separated and weighed on an electronic balance to calculate an average weight. Various groups are compared in terms of their respective average tumor weights at the 15th day.

Substance	tumor growth (FIG. 2) ([1]; SDT, ultrasound power density 0.4 W/cm^2-1.6 W/cm^2)	Average Tumor Weights ([1]; group E: 40 mg/kg into abdominal cavity, no ultrasound)	average tumor volume profile (FIG. 1) ([1]; group E: 40 mg/kg, no ultrasound)	Average Tumor Weights ([1]; group EU1: 40 mg/kg into abdominal cavity + ultrasound 1.0 MHz, 0.4 W/cm^2, 3 min, 6 h after injection)	Average Tumor Weights ([1]; group EU2: 40 mg/kg into abdominal cavity + ultrasound 1.0 MHz, 0.8 W/cm^2, 3 min, 6 h after injection)	average tumor volume profile (FIG. 1) ([1]; group EU3: 40 mg/kg + ultrasound 1.6 W/cm^2)	Average Tumor Weights ([1]; group EU3: 40 mg/kg into abdominal cavity + ultrasound 1.0 MHz, 1.6 W/cm^2, 3 min, 6 h after injection)	Blood Routine and chemistry tests ([2]; after 3 cycles of SDT)	symptom ([2]; after 3 cycles of SDT)	CT-PET scan of liver metastasis after 3 cycles of SDT ([2]; total dose 60 mg by lingual absorption, red LED light + ultrasound 2.0 W/cm^2, 20 min, daily for 3 days per cycle)	effect on the tumor (FIG. 4) ([3]; SDT, ultrasound power density 0.3 W/cm^2-1.2 W/cm^2)	Average Tumor Weight ([3]; group S: 20 mg/kg intraperitoneally, no ultrasound, 15 days after treatment)	average tumor volume profile (FIG. 3) ([3]; group S: 20 mg/kg, no ultrasound)	Average Tumor Weight ([3]; group SU1: 20 mg/kg intraperitoneally + ultrasound 1.0 MHz, 0.3 W/cm^2, 180 s, 6 h after injection, 15 days)	Average Tumor Weight ([3]; group SU2: 20 mg/kg intraperitoneally + ultrasound 1.0 MHz, 0.6 W/cm^2, 180 s, 6 h after injection, 15 days)	average tumor volume profile (FIG. 3) ([3]; group SU3: 20 mg/kg + ultrasound 1.2 W/cm^2)	Average Tumor Weight ([3]; group SU3: 20 mg/kg intraperitoneally + ultrasound 1.0 MHz, 1.2 W/cm^2, 180 s, 6 h after injection, 15 days)
dihydroporphin e4	tumor growth is significantly inhibited	1.8800 ± 0.3114 g	slower increase compared with the blank control group	0.7600 ± 0.0894 g	0.5800 ± 0.0837 g	even slower tumor development	0.5200 ± 0.0837 g	–	–	–	–	–	–	–	–	–	–
lysine form of tin chlorophyllin	–	–	–	–	–	–	–	normal result	much improved	the tumor shrank and the tumor metabolic activity was inhibited	killing effect on the tumor	0.269 ± 0.331 g	slower increase compared to the blank control group	0.0435 ± 0.031 g	0.022 ± 0.008 g	hardly increased during the first six days after the SDT treatment, and began to decrease from the 7th day, and noticeably lower at the 15th day than before the test	0.011 ± 0.004 g
